Assay results as given in US10130651B2, “RNAi Therapy for Hepatitis B Virus Infection” (Arrowhead Pharmaceuticals, Inc., priority 2015, dated 2018).

Legend:
Assay type in all cases: in vivo, NOD-SCID mice (pHBV model)
[1] = test system: HBV DNA, Hepatitis B Virus; assay: Serum HBV DNA in pHBV mice after MLP delivery peptide plus AD01385 and/or AD01386 (Example 10, Tables 19, 20); conditions: 3 mg/kg MLP delivery peptide plus […] of each RNAi trigger; for Mean HBV DNA in serum: single IV
[2] = test system: HBsAg, Hepatitis B Virus; assay: Serum HBsAg in pHBV mice after MLP delivery peptide plus AD01385 and/or AD01386 (Example 10, Tables 17, 18); conditions: 3 mg/kg MLP delivery peptide plus […] of each RNAi trigger; for Mean HBsAg in serum: single IV
Experimental: At day −28, 6 to 8 week old female NOD.CB17-Prkdscid/NcrCrl (NOD-SCID) mice were transiently transfected in vivo with MC-HBV 1.3 by hydrodynamic tail vein injection as described.
CDM-NAG was added to MLP, SEQ ID NO: 650 (GIL MLP, L-form), in a 250 mM HEPES-buffered aqueous solution at a 5:1 (w/w) ratio at room temperature and incubated for 30 min to yield MLP delivery peptide. The reaction mixture was adjusted to pH 9.0 with 4 M NaOH. The extent of the reaction was assayed using 2,4,6-trinitrobenzene-sulfonic acid and determined to be >95%. MLP delivery peptide was purified by tangential flow in 10 mM bicarbonate buffer, pH 9.0, to which 10% dextran (w/w) was added. The final purified material was lyophilized.
5 mg lyophilized MLP delivery peptide was resuspended with 1 mL water. MLP delivery peptide was then combined with HBV RNAi triggers (AD01385 or AD01386) at the various dose levels.
At Day 1, each mouse was given a single IV administration via tail vein of 200 μl per 20 gram body weight of saline containing MLP delivery peptide+HBV RNAi triggers.
At various time points, before and after administration of MLP delivery peptide+HBV RNAi triggers, serum HBsAg and serum HBV DNA were measured. The HBsAg level in serum for each animal at a time point was divided by the pre-treatment level in that animal in order to determine the ratio of HBsAg in serum “normalized to pre-treatment”. The HBV DNA level in serum for each group at a time point was also divided by the pre-treatment level in that group in order to determine the ratio of HBV DNA in serum “normalized to pre-treatment”. In order to account for non-treatment related decline in expression of MC-HBV 1.3 or pHBV 1.3.—the “normalized to pre-treatment” ratio for an individual animal at a time point was then divided by the average “normalized to pre-treatment” ratio of all mice in the saline control group at the same time point to obtain the ratio of HBsAg, or HBV DNA, in serum “normalized to pre-treatment and control”.
Mice were anesthetized with 2-3% isoflurane and blood samples were collected from the submandibular area into serum separation tubes (Sarstedt AG & Co., Nümbrecht, Germany). Blood was allowed to coagulate at ambient temperature for 20 min. The tubes were centrifuged at 8,000×g for 3 min to separate the serum and stored at 4° C.
Serum Hepatitis B surface antigen (HBsAg) and Serum HBV DNA levels were measured as described.

[3] = test system: HBsAg, Hepatitis B Virus; assay: as above; conditions: 3 mg/kg MLP delivery peptide plus […] of each RNAi trigger; for Mean HBsAg in serum: single IV; remark: listed apart in the source

Substance	Mean HBV DNA in serum ([1]; day 5)	Mean HBV DNA in serum ([1]; day 8)	Mean HBV DNA in serum ([1]; day 15)	Mean HBV DNA in serum ([1]; day 22)	Mean HBV DNA in serum ([1]; day 29)	Mean HBV DNA in serum ([1]; day 36)	Mean HBV DNA in serum ([1]; day −2 (pre-dose))	Mean HBV DNA in serum (normalized to pre-dose and saline control group) ([1]; day 5)	Mean HBV DNA in serum (normalized to pre-dose and saline control group) ([1]; day 8)	Mean HBV DNA in serum (normalized to pre-dose and saline control group) ([1]; day 15)	Mean HBV DNA in serum (normalized to pre-dose and saline control group) ([1]; day 22)	Mean HBV DNA in serum (normalized to pre-dose and saline control group) ([1]; day 29)	Mean HBV DNA in serum (normalized to pre-dose and saline control group) ([1]; day 36)	Mean HBV DNA in serum (normalized to pre-dose and saline control group) ([1]; day −2 (pre-dose))	Mean HBsAg in serum ([2]; day 5) [ng/mL]	Mean HBsAg in serum ([2]; day 22) [ng/mL]	Mean HBsAg in serum ([2]; day 36) [ng/mL]	HBsAg in serum (mean ± SD) (normalized to pre-dose and saline control group) ([2]; day 5)	HBsAg in serum (mean ± SD) (normalized to pre-dose and saline control group) ([2]; day 8)	HBsAg in serum (mean ± SD) (normalized to pre-dose and saline control group) ([2]; day 15)	further results
AD01386: duplex AM02312-AS/AM02320-SS (C6) (antisense TACCAAUUUAUGCCUACAGTT; sense UAUCUGUAGGCAUAAAUUGGUAT; siRNA; C6, chemistry not fully specified)	4.42 × 10^6 copies/mL	2.37 × 10^6 copies/mL	1.04 × 10^8 copies/mL	4.94 × 10^7 copies/mL	1.04 × 10^8 copies/mL	9.53 × 10^7 copies/mL	2.24 × 10^8 copies/mL	0.020 ± 0.002	0.011 ± 0.002	0.153 ± 0.004	0.303 ± 0.048	0.710 ± 0.080	0.728 ± 0.022	1.000 ± 0.000	125 ± 98	738 ± 670	2252 ± 1565	0.021 ± 0.007	0.016 ± 0.008	0.078 ± 0.027	HBsAg in serum (mean ± SD) (normalized to pre-dose and saline control group) ([2]; day 22): 0.237 ± 0.041; HBsAg in serum (mean ± SD) (normalized to pre-dose and saline control group) ([2]; day 29): 0.526 ± 0.045; Mean HBsAg in serum ([3]; day 8): 109 ± 120 ng/mL; Mean HBsAg in serum ([3]; day 15): 273 ± 321 ng/mL; Mean HBsAg in serum ([3]; day 29): 1627 ± 1487 ng/mL; Mean HBsAg in serum ([3]; day −2 (pre-dose)): 6219 ± 5606 ng/mL; HBsAg in serum (mean ± SD) (normalized to pre-dose and saline control group) ([3]; day 36): 0.808 ± 0.151; HBsAg in serum (mean ± SD) (normalized to pre-dose and saline control group) ([3]; day −2 (pre-dose)): 1.000 ± 0.000
AD01385: duplex AM02315-AS/AM02319-SS (TEG) (antisense TAUGAUAAAACGCCGCAGATT; sense UAUUCUGCGGCGUUUUAUCAUAT; siRNA; TEG, chemistry not fully specified)	9.84 × 10^6 copies/mL	1.64 × 10^7 copies/mL	7.69 × 10^7 copies/mL	7.60 × 10^7 copies/mL	7.69 × 10^7 copies/mL	6.91 × 10^7 copies/mL	2.04 × 10^8 copies/mL	0.050 ± 0.000	0.087 ± 0.020	0.474 ± 0.029	0.510 ± 0.074	0.571 ± 0.034	0.582 ± 0.040	1.000 ± 0.000	878 ± 697	2163 ± 1255	2067 ± 870	0.108 ± 0.026	0.282 ± 0.030	0.665 ± 0.135	HBsAg in serum (mean ± SD) (normalized to pre-dose and saline control group) ([2]; day 22): 0.589 ± 0.109; HBsAg in serum (mean ± SD) (normalized to pre-dose and saline control group) ([2]; day 29): 0.660 ± 0.175; Mean HBsAg in serum ([3]; day 8): 1905 ± 1232 ng/mL; Mean HBsAg in serum ([3]; day 15): 2309 ± 1315 ng/mL; Mean HBsAg in serum ([3]; day 29): 2418 ± 1470 ng/mL; Mean HBsAg in serum ([3]; day −2 (pre-dose)): 7218 ± 4071 ng/mL; HBsAg in serum (mean ± SD) (normalized to pre-dose and saline control group) ([3]; day 36): 0.592 ± 0.140; HBsAg in serum (mean ± SD) (normalized to pre-dose and saline control group) ([3]; day −2 (pre-dose)): 1.000 ± 0.000
